Test results published in patent publication US20120195986A1, “PREVENTING OR TREATING PERIODONTAL DISEASES BY HERBAL EXTRACT” (priority 2009, published 2012).

System: male ICR mice
Test: In vivo anti-inflammatory activity (croton oil-induced ear inflammation, ear thickness)
Set-up: species or system mouse
Settings: 20 mg/kg orally (positive control)
Procedure: In order to evaluate in vivo anti-inflammatory activity of the combined extract prepared in Preparation Examples 4 to 7 showing improved osteoblast proliferation and anti-inflammatory activity in the above Experimental Examples 1 and 2 and single extract in Examples 1.1 and 1.2, Hee et. al.'s method was used for the evaluation (Kor J. Pharmacogn. 25(4), 363˜367, 1994, Arch. Pharm. Res. 16(1), 18˜24, 1993.), and the result is shown in Table 2. In Table 2, 20 mg/kg was administered for positive control (Indomethacin, Sigma) and 200 mg/kg was administered for the test groups orally. Dose dependent anti-inflammatory activity was evaluated for the Example 5 with the highest activity, and the result is shown in Table 3. The thickness of ear was measured by using a thickness gauge (model H, Peacock, Japan) for male ICR mice (6 weeks, Samtaco Biokorea) before treating with the formulation. The control and test drug was administered orally, and the inflammation was induced 1 hour after the administration by smearing 10 uL of inflammation inducing material (2.5% croton oil, sigma) dissolved in acetone on the inner and outer ear after immobilizing the mice. In 5 hours, the mice were sacrificed by cervical dislocation and the thickness of the right ear was measured.

COc1ccc2c(c1)c(CC(=O)O)c(C)n2C(=O)c1ccc(Cl)cc1 [Indomethacin]
Anti-inflammatory activity (%): 50%
